Results: patent publication US20160256449A1, “H3 RECEPTOR ANTAGONIST FOR USE IN THE TREATMENT OF ALZHEIMER'S DISEASE” (SANOFI, priority 2013, published 2016)
Where a name gives a salt, the structure may show the parent alone.

What was measured:
CD1 male mice = experiment: object recognition test in normal mice; assay type: in vivo; details: 3 mg/kg oral, individually
Source text: FIG. 1 illustrates the results of the effect of a co-treatment with 2-(cyclohexyl methyl)-N-{2-[(2S)-1-methyl pyrrolidin-2-yl]ethyl}-1,2,3,4-tetrahydroisoquinoline-7-sulfonamide and donepezil on recognition memory in normal mice at various delays using the object recognition task.
The results of this study are depicted in FIG. 1.

scopolamine treated mice = experiment: object recognition task in scopolamine-treated mice; assay type: in vivo; details: 1 mg/kg alone
Source text: FIG. 2 illustrates the results of the effect of a co-treatment with 2-(cyclohexylmethyl)-N-{2-[(2S)-1-methylpyrrolidin-2-yl]ethyl}-1,2,3,4-tetrahydroisoquinoline-7-sulfonamide and donepezil on recognition memory deficit in scopolamine-treated mice using the object recognition task.
The results of this study are depicted in FIG. 2.

various rodent models = details: cited from earlier work

COc1cc2c(cc1OC)C(=O)C(CC1CCN(Cc3ccccc3)CC1)C2 (racemic) [donepezil hydrochloride, (±)-2,3-dihydro-5,6-dimethoxy-2-[[1-(phenylmethyl)-4-piperidinyl]methyl]-1H-inden-1-one, reference compound]
memory in object recognition test (CD1 male mice; 24 hours after administration): enhanced the memory
procognitive effect in object recognition test (CD1 male mice; after 48 hours): lack of procognitive effect
activity of the amount given alone, episodic memory deficits (scopolamine treated mice): inactive

CN1CCC[C@H]1CCNS(=O)(=O)c1ccc2c(c1)CN(CC1CCCCC1)CC2 [2-(Cyclohexylmethyl)-N-{2-[(2S)-1-methylpyrrolidin-2-yl]ethyl}-1,2,3,4-tetrahydroisoquinoline-7-sulfonamide]
cognitive performances on short-term and long-term memory and attention deficits (various rodent models): improves cognitive performances
